Data from PubChem BioAssay AID248 (DTP/NCI, 2004).
“And” between values parts separate entries of the source, which are not always exact repeats. Identical values can stand only once. Toxic doses and inconclusive results are not listed.

Tested on: L1210 leukemia ip in BDF1 mice, survival T/C
Assay: NCI In Vivo Anticancer Drug Screen. Data for tumor model L1210 Leukemia (intraperitoneal) in B6D2F1 (BDF1) mice
Settings: endpoint: mean survival time, higher = longer survival
Summary of the method: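 Mice bearing the transplanted tumor received compound or vehicle. Survival of the treated group was divided by that of the vehicle-treated control group to give the ratio.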

Structure (SMILES): NC(CSC(c1ccccc1)(c1ccccc1)c1ccccc1)C(=O)O (stereo not given)
- T/C (dose: 1.0 mg/kg/injection, schedule: Q01DX Z (ip), vehicle: carboxymethylcellulose (CMC)): 97 % of control and 102 % of control
- T/C (dose: 1.0 mg/kg/injection, schedule: Q01DX Z (ip), vehicle: other): 109 % of control
- T/C (dose: 1.0 mg/kg/injection, schedule: Q01DX Z (ip), vehicle: saline): 109 % of control
- T/C (dose: 1.95 mg/kg/injection, schedule: Q03HX006 (iv), vehicle: clinical formulation): 106 % of control
- T/C (dose: 3.9 mg/kg/injection, schedule: Q03HX006 (iv), vehicle: clinical formulation): 101 % of control
- T/C (dose: 4.0 mg/kg/injection, schedule: Q03HX024 (oral), vehicle: water): 107 % of control
- T/C (dose: 4.1 mg/kg/injection, schedule: Q03HX024 (ip), vehicle: clinical formulation): 107 % of control
- T/C (dose: 4.1 mg/kg/injection, schedule: Q03HX024 (ip), vehicle: saline): 114 % of control
- T/C (dose: 4.1 mg/kg/injection, schedule: Q03HX024 (ip), vehicle: water): 111 % of control
- T/C (dose: 4.4 mg/kg/injection, schedule: Q03HX024 (ip), vehicle: water): 106 % of control
- T/C (dose: 5.0 mg/kg/injection, schedule: Q01DX Z (ip), vehicle: carboxymethylcellulose (CMC)): 108 % of control and 123 % of control
- T/C (dose: 5.0 mg/kg/injection, schedule: Q01DX Z (ip), vehicle: other): 115 % of control
- T/C (dose: 5.0 mg/kg/injection, schedule: Q01DX Z (ip), vehicle: saline): 117 % of control
- T/C (dose: 5.4 mg/kg/injection, schedule: Q03HX024 (ip), vehicle: saline): 111 % of control
- T/C (dose: 6.0 mg/kg/injection, schedule: Q03HX024 (oral), vehicle: water): 118 % of control
- T/C (dose: 6.25 mg/kg/injection, schedule: Q01DX015 (oral), vehicle: saline): 108 % of control
- T/C (dose: 6.25 mg/kg/injection, schedule: Q01DX015 (sc), vehicle: saline): 105 % of control
- T/C (dose: 6.6 mg/kg/injection, schedule: Q03HX024 (ip), vehicle: water): 124 % of control
- T/C (dose: 7.2 mg/kg/injection, schedule: Q03HX024 (ip), vehicle: clinical formulation): 124 % of control
- T/C (dose: 7.81 mg/kg/injection, schedule: Q03HX006 (iv), vehicle: clinical formulation): 103 % of control
- T/C (dose: 7.81 mg/kg/injection, schedule: Q03HX012 (ip), vehicle: clinical formulation): 108 % of control
- T/C (dose: 7.81 mg/kg/injection, schedule: Q03HX012 (ip), vehicle: water): 121 % of control
- T/C (dose: 8.75 mg/kg/injection, schedule: Q03HX008 (ip), vehicle: other): 113 % of control
- T/C (dose: 9.0 mg/kg/injection, schedule: Q03HX024 (oral), vehicle: clinical formulation): 105 % of control
- T/C (dose: 9.0 mg/kg/injection, schedule: Q03HX024 (oral), vehicle: saline): 105 % of control
- T/C (dose: 9.0 mg/kg/injection, schedule: Q03HX024 (oral), vehicle: water): 115 % of control
- T/C (dose: 10.0 mg/kg/injection, schedule: Q01DX Z (ip), vehicle: carboxymethylcellulose (CMC)): 119 % of control
- T/C (dose: 12.5 mg/kg/injection, schedule: Q01DX009 (ip), vehicle: clinical formulation): 116 % of control
- T/C (dose: 12.5 mg/kg/injection, schedule: Q01DX009 (ip), vehicle: other): 123 % of control
- T/C (dose: 12.5 mg/kg/injection, schedule: Q01DX009 (ip), vehicle: water): 116 % of control
- T/C (dose: 12.5 mg/kg/injection, schedule: Q01DX015 (ip), vehicle: saline): 151 % of control
- T/C (dose: 12.5 mg/kg/injection, schedule: Q01DX015 (oral), vehicle: saline): 114 % of control
- T/C (dose: 12.75 mg/kg/injection, schedule: Q03HX024 (ip), vehicle: water): 119 % of control
- T/C (dose: 14.0 mg/kg/injection, schedule: Q03HX024 (oral), vehicle: clinical formulation): 122 % of control
- T/C (dose: 15.62 mg/kg/injection, schedule: Q03HX006 (iv), vehicle: clinical formulation): 103 % of control
- T/C (dose: 15.62 mg/kg/injection, schedule: Q03HX012 (ip), vehicle: water): 152 % of control
- T/C (dose: 16.87 mg/kg/injection, schedule: Q03HX024 (ip), vehicle: other): 151 % of control
- T/C (dose: 17.0 mg/kg/injection, schedule: Q01DX009 (ip), vehicle: other): 109 % of control
- T/C (dose: 17.5 mg/kg/injection, schedule: Q01DX005 (ip), vehicle: other): 114 % of control
- T/C (dose: 17.5 mg/kg/injection, schedule: Q01DX009 (ip), vehicle: other): 113 % of control
- T/C (dose: 17.5 mg/kg/injection, schedule: Q## X006 (ip), vehicle: other): 116 % of control
- T/C (dose: 22.5 mg/kg/injection, schedule: Q03HX024 (ip), vehicle: water): 92 % of control
- T/C (dose: 25.0 mg/kg/injection, schedule: Q01DX009 (ip), vehicle: clinical formulation): 117 % of control
- T/C (dose: 25.0 mg/kg/injection, schedule: Q01DX009 (ip), vehicle: other): 119 % of control
- T/C (dose: 25.0 mg/kg/injection, schedule: Q01DX009 (ip), vehicle: water): 110 % of control
- T/C (dose: 27.0 mg/kg/injection, schedule: Q03HX024 (oral), vehicle: clinical formulation): 152 % of control
- T/C (dose: 31.25 mg/kg/injection, schedule: Q03HX006 (iv), vehicle: clinical formulation): 116 % of control
- T/C (dose: 31.25 mg/kg/injection, schedule: Q03HX012 (ip), vehicle: clinical formulation): 118 % of control
- T/C (dose: 31.25 mg/kg/injection, schedule: Q03HX012 (ip), vehicle: water): 118 % of control
- T/C (dose: 35.0 mg/kg/injection, schedule: Q03HX008 (ip), vehicle: other): 122 % of control
- T/C (dose: 35.0 mg/kg/injection, schedule: Q03HX024 (ip), vehicle: other): 107 % of control
- T/C (dose: 35.0 mg/kg/injection, schedule: Q04DX003 (ip), vehicle: clinical formulation): 96 % of control
- T/C (dose: 35.0 mg/kg/injection, schedule: Q04DX003 (ip), vehicle: other): 113 % of control
- T/C (dose: 35.0 mg/kg/injection, schedule: Q## X006 (ip), vehicle: other): 124 % of control
- T/C (dose: 35.5 mg/kg/injection, schedule: Q01DX009 (ip), vehicle: other): 107 % of control
- T/C (dose: 47.0 mg/kg/injection, schedule: Q04DX003 (ip), vehicle: other): 119 % of control
- T/C (dose: 48.0 mg/kg/injection, schedule: Q03HX024 (oral), vehicle: clinical formulation): 106 % of control
- T/C (dose: 50.0 mg/kg/injection, schedule: Q01DX009 (oral), vehicle: other): 123 % of control
- T/C (dose: 50.0 mg/kg/injection, schedule: Q01DX Z (ip), vehicle: carboxymethylcellulose (CMC)): 102 % of control
- T/C (dose: 52.8 mg/kg/injection, schedule: Q03HX024 (ip), vehicle: clinical formulation): 105 % of control
- T/C (dose: 52.8 mg/kg/injection, schedule: Q04DX003 (ip), vehicle: clinical formulation): 95 % of control and 105 % of control
- T/C (dose: 70.0 mg/kg/injection, schedule: Q01DX001 (ip), vehicle: other): 121 % of control
- T/C (dose: 70.0 mg/kg/injection, schedule: Q03HX008 (ip), vehicle: other): 101 % of control
- T/C (dose: 70.0 mg/kg/injection, schedule: Q04DX003 (ip), vehicle: clinical formulation): 107 % of control
- T/C (dose: 70.0 mg/kg/injection, schedule: Q## X006 (ip), vehicle: other): 121 % of control
- T/C (dose: 78.0 mg/kg/injection, schedule: Q02DX005 (ip), vehicle: other): 152 % of control
- T/C (dose: 78.0 mg/kg/injection, schedule: Q04DX003 (ip), vehicle: other): 114 % of control
- T/C (dose: 78.0 mg/kg/injection, schedule: Q08DX002 (ip), vehicle: other): 110 % of control
- T/C (dose: 80.0 mg/kg/injection, schedule: Q03HX024 (ip), vehicle: clinical formulation): 115 % of control
- T/C (dose: 80.0 mg/kg/injection, schedule: Q04DX003 (ip), vehicle: clinical formulation): 94 % of control and 108 % of control
- T/C (dose: 100.0 mg/kg/injection, schedule: Q01DX009 (ip), vehicle: saline with Tween-80): 108 % of control
- T/C (dose: 100.0 mg/kg/injection, schedule: Q01DX009 (oral), vehicle: other): 118 % of control
- T/C (dose: 100.0 mg/kg/injection, schedule: Q01DX Z (ip), vehicle: other): 115 % of control
- T/C (dose: 100.0 mg/kg/injection, schedule: Q01DX Z (ip), vehicle: saline): 150 % of control
- T/C (dose: 100.0 mg/kg/injection, schedule: Q02DX005 (oral), vehicle: other): 121 % of control
- T/C (dose: 112.0 mg/kg/injection, schedule: Q03HX024 (oral), vehicle: clinical formulation): 96 % of control
- T/C (dose: 112.0 mg/kg/injection, schedule: Q03HX024 (oral), vehicle: saline): 103 % of control
- T/C (dose: 112.0 mg/kg/injection, schedule: Q04DX003 (ip), vehicle: clinical formulation): 122 % of control
- T/C (dose: 125.0 mg/kg/injection, schedule: Q02DX009 (ip), vehicle: other): 97 % of control
- T/C (dose: 130.0 mg/kg/injection, schedule: Q08DX002 (ip), vehicle: other): 124 % of control
- T/C (dose: 140.0 mg/kg/injection, schedule: Q01DX001 (ip), vehicle: other): 118 % of control
- T/C (dose: 150.0 mg/kg/injection, schedule: Q01DX Z (ip), vehicle: saline): 109 % of control
- T/C (dose: 160.0 mg/kg/injection, schedule: Q03HX024 (ip), vehicle: saline): 110 % of control
- T/C (dose: 240.0 mg/kg/injection, schedule: Q03HX024 (ip), vehicle: saline): 92 % of control
- T/C (dose: 250.0 mg/kg/injection, schedule: Q02DX009 (ip), vehicle: other): 103 % of control
- T/C (dose: 250.0 mg/kg/injection, schedule: Q02DX009 (oral), vehicle: other): 121 % of control
- T/C (dose: 250.0 mg/kg/injection, schedule: Q04DX005 (oral), vehicle: other): 121 % of control
- T/C (dose: 250.0 mg/kg/injection, schedule: Q08DX003 (oral), vehicle: other): 111 % of control
- T/C (dose: 280.0 mg/kg/injection, schedule: Q01DX001 (ip), vehicle: other): 107 % of control
- T/C (dose: 280.0 mg/kg/injection, schedule: Q04DX003 (ip), vehicle: saline): 107 % of control
- T/C (dose: 400.0 mg/kg/injection, schedule: Q01DX009 (oral), vehicle: other): 120 % of control
- T/C (dose: 500.0 mg/kg/injection, schedule: Q08DX003 (oral), vehicle: other): 124 % of control
- T/C (dose: 800.0 mg/kg/injection, schedule: Q08DX002 (oral), vehicle: other): 113 % of control
- T/C (dose: 1000.0 mg/kg/injection, schedule: Q02DX009 (oral), vehicle: other): 112 % of control
- T/C (dose: 2000.0 mg/kg/injection, schedule: Q08DX003 (oral), vehicle: other): 151 % of control
